Laboratory results as given in patent publication US10472356B2, “Bicyclic ketone sulfonamide compounds” (AMGEN INC., priority 2015, dated 2019).
pIC50: −log10 of the molar value.

Experiments:
Format in all cases: cell-based
human Nav1.7 [1] = target: T1, human Nav1.7 (Homo sapiens, UniProt Q15858); assay: Nav 1.7 IWB In Vitro Assay (IonWorks Barracuda); conditions: HEK293 cells stably transfected with human Nav 1.7; IonWorks Barracuda population patch-clamp; cells clamped to −20 mV for 4 minutes with compound; 26th pulse; read-out: hNav1.7 IWB IC50
T1 construct: expressed in transfected cells; host or cells: HEK293
Outline: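 Population patch clamp of HEK293 cells stably expressing human Nav 1.7: 26 pulses to −20 mV (150 ms, 5 Hz) from −110 mV, then 4 min at −20 mV with compound, 3 s recovery at −110 mV and the train repeated. % inhibition of 26th-pulse peak current vs no compound; IC50 from concentration-response curves.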

human Nav1.7 [2] = target: T1, human Nav1.7; assay: Nav 1.7 IWQ In Vitro Assay (IonWorks Quattro); conditions: HEK293 cells stably transfected with human Nav 1.7; IonWorks Quattro population patch-clamp; 26th pulse to −20 mV, 5 Hz; cells unclamped 5 to 8 minutes with compound; read-out: hNav1.7 IWQ IC50
Experimental: Nav 1.7 or Nav 1.5 IWQ In Vitro Assay
HEK293 cells stably transfected with either human Nav 1.7 or human Nav 1.5 were recorded in population patch-clamp mode with the IonWorks® Quattro automated electrophysiology system (Molecular Devices, LLC, Sunnyvale, Calif.). Cells were voltage clamped to −110 mV for three seconds (Nav 1.7) or half a second (Nav 1.5) and sodium currents were elicited by a train of 26 depolarizations of 150 msec duration to −20 mV (Nav 1.7) or 0 mV (Nav 1.5) at a frequency of 5 Hz. Cells were then left unclamped for a period of 5 to 8 minutes while a single concentration of test compound was added. Following this compound incubation period, cells were then reclamped to −110 mV for three seconds (Nav1.7) or half a second (Nav1.5) to recover unbound channels and put through the same 26 pulse voltage protocol as above. Peak inward current during the 26th pulse to −20 mV (Nav 1.7) or 0 mV (Nav 1.5) in the presence of compound was divided by the peak inward current evoked by the 26th pulse to −20 mV (Nav1.7) or 0 mV (Nav1.5) in the absence of compound to determine percent inhibition. Concentration-response curves of percent.

human Nav1.7 [3] = target: T1, human Nav1.7; assay: Nav 1.7 In Vitro PatchXpress (PX) Assay; conditions: HEK 293 cells stably transfected with human Nav1.7; PatchXpress whole cell voltage clamp; partially inactivated state (holding potential yielding 20 to 50% inactivation); read-out: hNav1.7 PX IC50
Outline: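 Whole-cell voltage clamp on HEK 293 cells stably expressing human Nav1.7 (automated patch), holding potential giving 20–50% inactivation; 20 ms pulses to −10 mV at 0.1 Hz. Single compound concentration applied 3 min, peak current inhibition measured; IC50 fitted from 3–5 cells per concentration.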

T1 sequence (Q15858 whole entry): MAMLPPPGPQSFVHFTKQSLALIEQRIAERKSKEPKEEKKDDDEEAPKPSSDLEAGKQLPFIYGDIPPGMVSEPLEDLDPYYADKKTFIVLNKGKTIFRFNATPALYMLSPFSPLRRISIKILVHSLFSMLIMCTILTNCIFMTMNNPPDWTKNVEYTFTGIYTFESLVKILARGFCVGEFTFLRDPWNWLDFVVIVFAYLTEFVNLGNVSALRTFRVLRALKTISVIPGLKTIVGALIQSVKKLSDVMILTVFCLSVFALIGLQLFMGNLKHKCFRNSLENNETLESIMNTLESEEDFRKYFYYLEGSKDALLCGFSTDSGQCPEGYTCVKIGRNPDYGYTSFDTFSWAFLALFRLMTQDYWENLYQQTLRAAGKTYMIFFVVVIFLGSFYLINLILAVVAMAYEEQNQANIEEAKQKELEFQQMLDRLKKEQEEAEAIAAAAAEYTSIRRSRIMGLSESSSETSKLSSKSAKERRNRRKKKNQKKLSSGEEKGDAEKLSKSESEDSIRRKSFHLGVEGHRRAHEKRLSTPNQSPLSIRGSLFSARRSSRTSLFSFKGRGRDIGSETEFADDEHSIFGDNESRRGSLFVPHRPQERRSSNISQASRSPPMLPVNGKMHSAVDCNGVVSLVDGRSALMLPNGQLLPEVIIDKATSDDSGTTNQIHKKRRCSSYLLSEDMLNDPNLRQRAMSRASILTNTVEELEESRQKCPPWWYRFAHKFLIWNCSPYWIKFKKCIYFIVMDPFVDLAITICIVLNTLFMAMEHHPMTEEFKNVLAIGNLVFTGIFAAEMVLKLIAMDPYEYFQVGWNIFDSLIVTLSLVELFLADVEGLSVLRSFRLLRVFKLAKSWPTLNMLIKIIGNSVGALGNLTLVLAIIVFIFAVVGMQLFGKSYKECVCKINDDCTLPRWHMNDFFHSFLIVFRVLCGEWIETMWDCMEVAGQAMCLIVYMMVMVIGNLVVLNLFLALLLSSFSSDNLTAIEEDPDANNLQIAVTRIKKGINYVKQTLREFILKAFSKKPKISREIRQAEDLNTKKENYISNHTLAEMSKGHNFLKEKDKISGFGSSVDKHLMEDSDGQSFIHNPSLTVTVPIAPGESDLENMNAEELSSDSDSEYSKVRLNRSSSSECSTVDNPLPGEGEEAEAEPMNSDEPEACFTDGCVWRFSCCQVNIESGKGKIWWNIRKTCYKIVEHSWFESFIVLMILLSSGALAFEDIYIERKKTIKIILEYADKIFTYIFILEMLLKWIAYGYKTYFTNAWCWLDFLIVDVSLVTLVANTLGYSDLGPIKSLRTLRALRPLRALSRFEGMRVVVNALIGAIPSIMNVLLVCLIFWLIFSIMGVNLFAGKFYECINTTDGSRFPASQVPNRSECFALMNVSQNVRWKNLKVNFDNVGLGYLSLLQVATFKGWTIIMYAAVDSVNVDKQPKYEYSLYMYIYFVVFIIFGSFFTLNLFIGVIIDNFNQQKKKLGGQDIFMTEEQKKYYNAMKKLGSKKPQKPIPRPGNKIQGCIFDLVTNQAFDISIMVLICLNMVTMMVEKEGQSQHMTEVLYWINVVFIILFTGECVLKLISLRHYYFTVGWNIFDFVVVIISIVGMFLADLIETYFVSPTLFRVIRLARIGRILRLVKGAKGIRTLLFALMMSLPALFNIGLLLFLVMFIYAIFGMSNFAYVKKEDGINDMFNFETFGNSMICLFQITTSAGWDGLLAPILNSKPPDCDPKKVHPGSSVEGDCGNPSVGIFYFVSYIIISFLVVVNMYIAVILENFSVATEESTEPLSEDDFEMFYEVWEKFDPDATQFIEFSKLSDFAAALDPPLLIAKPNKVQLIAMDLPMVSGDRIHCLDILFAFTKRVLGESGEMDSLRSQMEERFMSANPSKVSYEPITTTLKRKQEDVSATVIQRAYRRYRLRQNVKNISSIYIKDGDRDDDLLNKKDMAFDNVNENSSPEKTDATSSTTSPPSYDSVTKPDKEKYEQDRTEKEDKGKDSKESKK

Row | SMILES | pIC50 (human Nav1.7 [1]) | pIC50 (human Nav1.7 [2]) | pIC50 (human Nav1.7 [3])
1 | COc1cc(CCC(F)(F)F)c(Cl)cc1-n1c2c(ccc1=O)CN(S(=O)(=O)Nc1cccnn1)CC2 (single isomer, unassigned) [Example 96-P, P-1-(5-chloro-2-methoxy-4-(3,3,3-trifluoropropyl)phenyl)-2-oxo-N-(pyridazin-3-yl)-1,2,7,8-tetrahydro-1,6-naphthyridine-6(5H)-sulfonamide] | 7.47 | 8.05 | 
2 | COc1cc(-c2ccc(C(F)(F)F)cc2)c(F)cc1-n1c2c(ccc1=O)CN(S(=O)(=O)Nc1cccnn1)CC2 [Example 67, P-1-(2-fluoro-5-methoxy-4′-(trifluoromethyl)-[1,1′-biphenyl]-4-yl)-2-oxo-N-(pyridazin-3-yl)-1,2,7,8-tetrahydro-1,6-naphthyridine-6(5H)-sulfonamide] | 7.69 |  | 7.12
3 | COc1cc(-c2cc(C)cc(Cl)c2)c(F)cc1-n1c2c(ccc1=O)CN(S(=O)(=O)Nc1cccnn1)CC2 [Example 69, P-1-(3′-chloro-2-fluoro-5-methoxy-5′-methyl-[1,1′-biphenyl]-4-yl)-2-oxo-N-(pyridazin-3-yl)-1,2,7,8-tetrahydro-1,6-naphthyridine-6(5H)-sulfonamide] | 7.77 |  | 7.64
4 | COc1cc(Cl)cc(-c2cc(OC)c(-n3c4c(ccc3=O)CN(S(=O)(=O)Nc3cccnn3)CC4)cc2F)c1 [Example 70, P-1-(3′-chloro-2-fluoro-5,5′-dimethoxy-[1,1′-biphenyl]-4-yl)-2-oxo-N-(pyridazin-3-yl)-1,2,7,8-tetrahydro-1,6-naphthyridine-6(5H)-sulfonamide] | 8.21 |  | 7.70
5 | COc1cc(-c2cccc(C(F)F)c2)c(F)cc1-n1c2c(ccc1=O)CN(S(=O)(=O)Nc1cccnn1)CC2 [Example 72, P-1-(3′-(difluoromethyl)-2-fluoro-5-methoxy-[1,1′-biphenyl]-4-yl)-2-oxo-N-(pyridazin-3-yl)-1,2,7,8-tetrahydro-1,6-naphthyridine-6(5H)-sulfonamide] | 7.82 |  | 6.58
6 | COc1cc(-c2ccc(F)c(C)c2)c(F)cc1-n1c2c(ccc1=O)CN(S(=O)(=O)Nc1cccnn1)CC2 [Example 73, P-1-(2,4′-difluoro-5-methoxy-3′-methyl-[1,1′-biphenyl]-4-yl)-2-oxo-N-(pyridazin-3-yl)-1,2,7,8-tetrahydro-1,6-naphthyridine-6(5H)-sulfonamide] | 7.74 |  | 6.63
7 | COc1ccc(C(F)(F)F)cc1-c1cc(OC)c(-n2c3c(ccc2=O)CN(S(=O)(=O)Nc2cccnn2)CC3)cc1F [Example 74, P-1-(2-fluoro-2′,5-dimethoxy-5′-(trifluoromethyl)-[1,1′-biphenyl]-4-yl)-2-oxo-N-(pyridazin-3-yl)-1,2,7,8-tetrahydro-1,6-naphthyridine-6(5H)-sulfonamide] | 8.11 |  | 7.53
8 | COc1cc(-c2cc(C)cc(C(F)(F)F)c2)c(F)cc1-n1c2c(ccc1=O)CN(S(=O)(=O)Nc1cccnn1)CC2 [Example 75, P-1-(2-fluoro-5-methoxy-3′-methyl-5′-(trifluoromethyl)-[1,1′-biphenyl]-4-yl)-2-oxo-N-(pyridazin-3-yl)-1,2,7,8-tetrahydro-1,6-naphthyridine-6(5H)-sulfonamide] | 7.94 |  | 7.38
9 | COc1cc(OC(F)(F)F)cc(-c2cc(OC)c(-n3c4c(ccc3=O)CN(S(=O)(=O)Nc3cccnn3)CC4)cc2F)c1 [Example 76, P-1-(2-fluoro-3′,5-dimethoxy-5′-(trifluoromethoxy)-[1,1′-biphenyl]-4-yl)-2-oxo-N-(pyridazin-3-yl)-1,2,7,8-tetrahydro-1,6-naphthyridine-6(5H)-sulfonamide] | 8.38 |  | 7.41
10 | COc1cc(-c2cc(C)cc(OC(F)(F)F)c2)c(F)cc1-n1c2c(ccc1=O)CN(S(=O)(=O)Nc1cccnn1)CC2 [Example 78, P-1-(2-fluoro-5-methoxy-3′-methyl-5′-(trifluoromethoxy)-[1,1′-biphenyl]-4-yl)-2-oxo-N-(pyridazin-3-yl)-1,2,7,8-tetrahydro-1,6-naphthyridine-6(5H)-sulfonamide] | 8.28 |  | 7.35
11 | COc1cc(-c2cc(F)c(F)c(OC)c2)c(F)cc1-n1c2c(ccc1=O)CN(S(=O)(=O)Nc1cccnn1)CC2 [Example 79, P-2-oxo-N-(pyridazin-3-yl)-1-(2,3′,4′-trifluoro-5,5′-dimethoxy-[1,1′-biphenyl]-4-yl)-1,2,7,8-tetrahydro-1,6-naphthyridine-6(5H)-sulfonamide] | 8.59 | 8.41 | 
12 | COc1cc(-c2cnc(OC)c(C(F)(F)F)c2)c(F)cc1-n1c2c(ccc1=O)CN(S(=O)(=O)Nc1cccnn1)CC2 [Example 80, P-1-(5-fluoro-2-methoxy-4-(6-methoxy-5-(trifluoromethyl)pyridin-3-yl)phenyl)-2-oxo-N-(pyridazin-3-yl)-1,2,7,8-tetrahydro-1,6-naphthyridine-6(5H)-sulfonamide] | 7.86 | 8.27 | 
13 | COc1cc(-c2ccc(F)c(OC(F)(F)F)c2)c(F)cc1-n1c2c(ccc1=O)CN(S(=O)(=O)Nc1cccnn1)CC2 [Example 81, P-1-(2,4′-difluoro-5-methoxy-3′-(trifluoromethoxy)-[1,1′-biphenyl]-4-yl)-2-oxo-N-(pyridazin-3-yl)-1,2,7,8-tetrahydro-1,6-naphthyridine-6(5H)-sulfonamide] | 8.07 | 8.41 | 
14 | COc1cc(-c2ccc(OC)c(C(F)(F)F)c2)c(F)cc1-n1c2c(ccc1=O)CN(S(=O)(=O)Nc1cccnn1)CC2 [Example 82, P-1-(2-fluoro-4′,5-dimethoxy-3′-(trifluoromethyl)-[1,1′-biphenyl]-4-yl)-2-oxo-N-(pyridazin-3-yl)-1,2,7,8-tetrahydro-1,6-naphthyridine-6(5H)-sulfonamide] | 7.59 | 7.81 | 
15 | COc1cc(-c2cc(OC)c(-n3c4c(ccc3=O)CN(S(=O)(=O)Nc3cccnn3)CC4)cc2F)cc(C(F)(F)F)c1 [Example 83, P-1-(2-fluoro-3′,5-dimethoxy-5′-(trifluoromethyl)-[1,1′-biphenyl]-4-yl)-2-oxo-N-(pyridazin-3-yl)-1,2,7,8-tetrahydro-1,6-naphthyridine-6(5H)-sulfonamide] | 8.29 | 8.47 | 
16 | COc1cc(-c2cc(F)cc(C(F)F)c2)c(F)cc1-n1c2c(ccc1=O)CN(S(=O)(=O)Nc1cccnn1)CC2 [Example 84, P-1-(3′-(difluoromethyl)-2,5′-difluoro-5-methoxy-[1,1′-biphenyl]-4-yl)-2-oxo-N-(pyridazin-3-yl)-1,2,7,8-tetrahydro-1,6-naphthyridine-6(5H)-sulfonamide] | 7.77 | 8.08 | 
17 | COc1cc(-c2ccc(F)c(C(F)F)c2)c(F)cc1-n1c2c(ccc1=O)CN(S(=O)(=O)Nc1cccnn1)CC2 [Example 85, P-1-(3′-(difluoromethyl)-2,4′-difluoro-5-methoxy-[1,1′-biphenyl]-4-yl)-2-oxo-N-(pyridazin-3-yl)-1,2,7,8-tetrahydro-1,6-naphthyridine-6(5H)-sulfonamide] | 7.76 | 8.37 | 
18 | COc1cc(-c2cc(F)cc(F)c2)c(F)cc1-n1c2c(ccc1=O)CN(S(=O)(=O)Nc1ccncn1)CC2 [Example 88, P-2-oxo-N-(pyrimidin-4-yl)-1-(2,3′,5′-trifluoro-5-methoxy-[1,1′-biphenyl]-4-yl)-1,2,7,8-tetrahydro-1,6-naphthyridine-6(5H)-sulfonamide] | 7.51 |  | 6.32
